{"source": "paper PMC4015959", "about": "“The Structural and Functional Basis of Catalysis Mediated by NAD(P)H:acceptor Oxidoreductase (FerB) of Paracoccus denitrificans” (PLoS ONE, 2014)", "key": {"[1]": {"molecular_target": "FerBHis6 wild-type and mutant variants", "assay": "Steady-state kinetics of NADH oxidation with UQ-0 as acceptor (quinone reductase activity)", "type": "biochemical, Paracoccus denitrificans", "settings": "UQ-0 100 µM, pH 7.4, 30 °C", "method": "(§1) The kinetic parameters ± standard error were determined by fitting the data to the appropriate kinetic equation using nonlinear regression and the program Microcal Origin (version 5.0)."}, "apoFerBHis6": {"molecular_target": "apoFerBHis6 (Paracoccus denitrificans, UniProt A1B9E3)", "assay": "Fluorescence titration of free flavin by apoenzyme (dissociation constants)", "type": "binding", "settings": "for Kd: 25 mM Tris-HCl, pH 7.4, 25 °C, read-out: Kd of apoFerBHis6-flavin complex", "experimental": "Dissociation constants of apoenzyme-flavin complexes were determined from fluorescence titration with excitation at 450 nm by adding of constant amount of the wild-type and mutant variants of apoFerBHis6 into 25 mM Tris-HCl buffer (pH 7.4) with 100 nM FMN or riboflavin. Decreasing emission intensities at 519 nm were recorded on Luminescence Spectrotometer LS-50B (Perkin-Elmer). Series of different concentrations of FMN standard was used for setting of a calibration curve on fluorescence intensity. The dissociation constants Kd were calculated according to [22] and converted to the binding Gibbs energy changes ΔGb = -RTln (1/Kd) (where R, gas constant, T, absolute temperature), from which the variation of Gibbs energy due to mutation (ΔΔGb) was computed as the difference in binding energy between mutant and wild-type enzyme (ΔΔGb = ΔGb(mut) - ΔGb(wt))."}, "[2]": {"settings": "cited from earlier work"}, "FerBHis6": {"tested_on": "FerBHis6", "assay": "Stopped-flow reduction of enzyme-bound flavin cofactor by NADH", "type": "biochemical, Paracoccus denitrificans", "experimental": "Stopped-flow spectrophotometry was performed on a SFM-3000 (Bio-Logic) stopped-flow system equipped with a 0.8- × 0.8-mm cuvette (FC-08). The temperature was kept constant at 10 °C with a thermostating water bath. Six measurements were averaged for each sample. […] Results from the stopped-flow experiments were analyzed in the Bio-Kine software (BioLogic)."}, "FerBHis6-R95A": {"molecular_target": "T1, FerBHis6-R95A (Paracoccus denitrificans, UniProt A1B9E3, R95A)", "T1 sequence (A1B9E3 1-182 R95A)": "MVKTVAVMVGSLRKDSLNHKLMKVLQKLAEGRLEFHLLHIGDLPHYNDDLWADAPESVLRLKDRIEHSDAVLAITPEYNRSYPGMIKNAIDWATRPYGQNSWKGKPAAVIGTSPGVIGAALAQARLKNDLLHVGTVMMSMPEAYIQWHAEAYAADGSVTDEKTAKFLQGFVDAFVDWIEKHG", "assay": "NADH:flavin oxidoreductase initial-velocity kinetics of R95A mutant", "type": "biochemical", "method": "as §1\n(§2) Measurements were performed at 30 °C with 61 nM enzyme in 25 mM Tris-HCl buffer (pH 7.4)."}, "[3]": {"molecular_target": "FerB (ferric reductase B, NAD(P)H:acceptor oxidoreductase) of Paracoccus denitrificans with a C-terminal six-histidine tag (Paracoccus denitrificans) (UniProt P84469)", "assay": "SAXS; […] protein, 290.15 K, buffer of the last purification step; dimer to tetramer; volume fractions by OLIGOMER"}, "[4]": {"molecular_target": "FerB (ferric reductase B, NAD(P)H:acceptor oxidoreductase) of Paracoccus denitrificans with a C-terminal six-histidine tag (Paracoccus denitrificans) (UniProt P84469)", "assay": "SAXS; 5.0 mg/mL protein, 290.15 K, buffer of the last purification step; dimer to tetramer; volume fractions by OLIGOMER"}, "[5]": {"molecular_target": "FerB (ferric reductase B, NAD(P)H:acceptor oxidoreductase) of Paracoccus denitrificans with a C-terminal six-histidine tag (Paracoccus denitrificans) (UniProt P84469)", "assay": "SAXS; 1.25 mg/mL protein, 290.15 K, buffer of the last purification step; dimer to tetramer; volume fractions by OLIGOMER"}, "[6]": {"molecular_target": "FerB (ferric reductase B, NAD(P)H:acceptor oxidoreductase) of Paracoccus denitrificans with a C-terminal six-histidine tag (Paracoccus denitrificans) (UniProt P84469)", "assay": "SEC; Superose 12, 0.1 mL of 0.5 mg/mL protein, 25 mM Tris-HCl pH 7.4, 0.5 mL/min, calibrated with marker proteins; holoenzyme"}, "[7]": {"assay": "Standard redox potential by xanthine/xanthine oxidase method of Massey with reference dye", "type": "physicochemical", "settings": "50 µM free FMN, pH 7.0"}, "FerB": {"tested_on": "FerB", "assay": "Activity toward external FMN, wild-type enzyme", "type": "biochemical, Paracoccus denitrificans", "method": "as §1"}, "[8]": {"assay": "FMN self-association in aqueous solution by 1H NMR chemical shift (literature)", "type": "physicochemical", "settings": "order of magnitude, from association constant of ref 46"}, "WrbA protein of E. coli": {"tested_on": "WrbA protein of E. coli", "set-up": "method as in PMID 9694845", "settings": "cited from earlier work"}, "[9]": {"set-up": "method as in PMID 17029888", "settings": "aqueous solutions; cited from earlier work"}, "B. subtilis YhdA": {"tested_on": "B. subtilis YhdA", "set-up": "method as in PMID 16752898", "settings": "cited from earlier work"}, "[10]": {"tested_on": "EmoB of Mesorhizobium sp. bacterium BNC1", "settings": "cited from earlier work"}, "[11]": {"tested_on": "Cc1cc2nc3c(=O)[nH]c(=O)nc-3n(C[C@H](O)[C@H](O)[C@H](O)CO)c2cc1C", "assay": "purified protein, by the assay type", "type": "biochemical, Paracoccus denitrificans", "settings": "other: NADH as donor; pH 7.4; 30.0 °C", "method": "as §1, §2"}, "[12]": {"tested_on": "Cc1cc2nc3c(=O)[nH]c(=O)nc-3n(C[C@H](O)[C@H](O)[C@H](O)COP(=O)(O)O)c2cc1C", "assay": "purified protein, by the assay type", "type": "biochemical, Paracoccus denitrificans", "settings": "other: NADH as donor", "method": "as §1, §2"}, "[13]": {"tested_on": "Cc1cc2nc3c(=O)[nH]c(=O)nc-3n(C[C@H](O)[C@H](O)[C@H](O)COP(=O)(O)OP(=O)(O)OC[C@H]3O[C@@H](n4cnc5c(N)ncnc54)[C@H](O)[C@@H]3O)c2cc1C", "assay": "purified protein, by the assay type", "type": "biochemical, Paracoccus denitrificans", "settings": "other: NADH as donor; pH 7.4; 30.0 °C", "method": "as §1, §2"}}, "note": "Where “and” joins values, the source holds several entries; their conditions need not be identical. Equal entries are not always repeated.", "data": [{"molecule": "[2H][C@H]1C=CN(C2OC(COP(=O)(O)OP(=O)(O)OCC3OC(n4cnc5c(N)ncnc54)C(O)C3O)C(O)C2O)C=C1C(N)=O", "note": "(stereo partly drawn) [[4S-^2H]NADH]", "values": [{"measurement": "kinetic isotope effect for enzyme-catalyzed UQ-0 reduction", "setting": "[1]", "result": "5.45±0.21"}]}, {"molecule": "Cc1cc2nc3c(=O)[nH]c(=O)nc-3n(C[C@H](O)[C@H](O)[C@H](O)CO)c2cc1C", "note": "[riboflavin]", "values": [{"measurement": "Kd", "setting": "apoFerBHis6", "result": "6.58 µM and 6.6 µM"}, {"measurement": "increase in Kd relative to FMN", "setting": "apoFerBHis6; riboflavin vs FMN", "result": 244, "unit": "fold"}]}, {"molecule": "[2H][C@@H]1C=CN(C2OC(COP(=O)(O)OP(=O)(O)OCC3OC(n4cnc5c(N)ncnc54)C(O)C3O)C(O)C2O)C=C1C(N)=O", "note": "(stereo partly drawn) [[4R-^2H]NADH]", "values": [{"measurement": "kinetic isotope effect for enzyme-catalyzed UQ-0 reduction", "setting": "[1]", "result": "1.07±0.13"}]}, {"molecule": "O=C1c2ccccc2C(=O)c2cc(S(=O)(=O)O)ccc21", "note": "[anthraquinone-2-sulfonate]", "values": [{"measurement": "E° ´ of reference dye", "setting": "[2]", "result": "−225", "unit": "mV"}]}, {"molecule": "[2H]C1C=CN(C2OC(COP(=O)(O)OP(=O)(O)OCC3OC(n4cnc5c(N)ncnc54)C(O)C3O)C(O)C2O)C=C1C(N)=O", "note": "(centres unmarked) [deuterated NADH]", "values": [{"measurement": "kinetic isotope effect for enzyme-catalyzed UQ-0 reduction", "setting": "[1]", "result": "about 6"}]}, {"molecule": "NC(=O)C1=CN([C@@H]2O[C@H](COP(=O)(O)OP(=O)(O)OC[C@H]3O[C@@H](n4cnc5c(N)ncnc54)[C@H](O)[C@@H]3O)[C@@H](O)[C@H]2O)C=CC1", "note": "[NADH]", "values": [{"measurement": "NADH concentration giving half maximal effect on kobs", "setting": "FerBHis6; 30 µM FerBHis6, 1–5000 µM NADH, 10 °C, anaerobic", "result": "6.4 ± 1.0", "unit": "µM"}, {"measurement": "pH dependence of kobs", "setting": "FerBHis6; 5 mM NADH, pH interval 3–9", "result": "did not depend on pH"}, {"measurement": "limit of kobs (apparent electron-transfer rate constant for FerB-NADH complex)", "setting": "FerBHis6; 10 °C, anaerobic", "result": "147.0 ± 0.4 s⁻¹ and ~140 s⁻¹"}, {"measurement": "Michaelis constant for NADH", "setting": "FerBHis6-R95A; FMN as acceptor, bisubstrate ping-pong fit", "result": "33 ± 7", "unit": "µM"}]}, {"molecule": "FerB (ferric reductase B, NAD(P)H:acceptor oxidoreductase) of Paracoccus denitrificans with a C-terminal six-histidine tag (from UniProt P84469 1-27) (enzyme)", "values": [{"measurement": "partial volume fraction of dimer", "setting": "[3]", "result": 13, "unit": "%"}, {"measurement": "partial volume fraction of tetramer", "setting": "[3]", "result": 87, "unit": "%"}, {"measurement": "partial volume fraction of dimer", "setting": "[4]", "result": 9, "unit": "%"}, {"measurement": "partial volume fraction of tetramer", "setting": "[4]", "result": 91, "unit": "%"}, {"measurement": "partial volume fraction of dimer", "setting": "[5]", "result": 34, "unit": "%"}, {"measurement": "partial volume fraction of tetramer", "setting": "[5]", "result": 66, "unit": "%"}, {"measurement": "stoichiometry N", "setting": "[6]", "result": 1.88, "unit": "subunits"}]}, {"molecule": "O=C1/C(=C2\\Nc3ccc(S(=O)(=O)[O-])cc3C2=O)Nc2ccc(S(=O)(=O)[O-])cc21.[Na+].[Na+]", "note": "[indigo carmine]", "values": [{"measurement": "E° ´ of reference dye", "setting": "[2]", "result": "−125", "unit": "mV"}]}, {"molecule": "Nc1ccc2nc3ccc(N)cc3[n+](-c3ccccc3)c2c1.[Cl-]", "note": "[phenosafranin]", "values": [{"measurement": "E° ´ of reference dye", "setting": "[2]", "result": "−252", "unit": "mV"}]}, {"molecule": "Cc1cc2nc3c(=O)[nH]c(=O)nc-3n(C[C@H](O)[C@H](O)[C@H](O)COP(=O)(O)O)c2cc1C", "note": "[FMN, flavin mononucleotide]", "values": [{"measurement": "Kd", "setting": "apoFerBHis6", "result": "0.027 ± 0.002", "unit": "µM"}, {"measurement": "Gibbs binding energy coming from the phosphate", "setting": "apoFerBHis6; calculated from Kd values of FMN and riboflavin", "result": -13.6, "unit": "kJ/mol"}, {"measurement": "total Gibbs binding energy", "setting": "apoFerBHis6; calculated from experimental Kd", "result": -43.2, "unit": "kJ/mol"}, {"measurement": "E° ´ of free flavin", "setting": "[7]", "result": "−212", "unit": "mV"}, {"measurement": "kinetic solvent isotope effect kobs(H2O)/kobs(D2O)", "setting": "FerBHis6; 99% deuterium oxide, buffer pH 6.8", "result": 1.9}, {"measurement": "ratio of kcat toward external FMN to kcat toward UQ-0", "setting": "FerB", "result": "about 0.006"}, {"measurement": "kcat (catalytic constant) of flavin reduction", "setting": "FerBHis6-R95A; NADH as donor, 30 °C, 25 mM Tris-HCl pH 7.4", "result": 50, "unit": "s⁻¹"}, {"measurement": "ratio of kcat toward external FMN to kcat toward UQ-0", "setting": "FerBHis6-R95A; R95A mutation", "result": 0.32}, {"measurement": "expected dissociation constant of self-association", "setting": "[8]", "result": "~10", "unit": "mM"}, {"measurement": "E° ´ published value", "setting": "[2]; free FMN", "result": "−207", "unit": "mV"}, {"measurement": "Kd", "setting": "WrbA protein of E. coli", "result": 2000, "unit": "nM"}, {"measurement": "self-association constant", "setting": "[9]", "result": "20 to 100", "unit": "M⁻¹"}, {"measurement": "kcat of FMN reduction", "setting": "B. subtilis YhdA", "result": "60 to 70", "unit": "s⁻¹"}, {"measurement": "kcat of FMN reduction", "setting": "[10]; calculated from Vmax using subunit mass 21 412 Da", "result": 397, "unit": "s⁻¹"}, {"measurement": "Vmax", "setting": "[10]", "result": 1111, "unit": "µmol/min/mg"}]}, {"molecule": "COC1=C(OC)C(=O)C(C)=CC1=O", "note": "[UQ-0, 2,3-dimethoxy-5-methyl-1,4-bezoquinone]", "values": [{"measurement": "time to complete oxidation of dithionite pre-reduced flavin cofactor", "setting": "FerBHis6; 200 µM UQ-0, within stopped-flow dead time, all proteins", "result": "≤ 0.4", "unit": "ms"}]}, {"molecule": "FerBHis6-R95A (Paracoccus denitrificans PD1222; R95A)", "values": [{"measurement": "Km", "setting": "[11]", "result": "59 ± 12", "unit": "µM"}, {"measurement": "kcat", "setting": "[11]", "result": "75 ± 10", "unit": "s⁻¹"}, {"measurement": "kcat", "setting": "[12]; 30 °C, 25 mM Tris-HCl pH 7.4", "result": "50 ± 5", "unit": "s⁻¹"}, {"measurement": "Km", "setting": "[12]; pH 7.4, 30.0 °C", "result": "111 ± 15", "unit": "µM"}, {"measurement": "Km", "setting": "[13]", "result": "95 ± 7", "unit": "µM"}, {"measurement": "kcat", "setting": "[13]", "result": "38 ± 1", "unit": "s⁻¹"}]}]}
